Laboratory results from ChEMBL document CHEMBL3639365, “Substituted aniline derivatives” (2014).

What was measured:
1,3-beta-glucan synthase [1] = target: 1,3-beta-glucan synthase (Aspergillus, UniProt Q4WLT4); experiment: (§1) Glucan Synthase Assay: The glucan synthase assay follows the incorporation of tritiated UDP-glucose into acid insoluble β-glucan as catalysed by the glucan synthase activity present in membrane preparations from Candida albicans and Aspergillus fumigatus. UDP-[3H]-glucose (ca 0.01 μCi) is added to 100 μl assay buffer (50 mM Tris-Cl, pH8.0, 8% glycerol, 1 mM EDTA, 1.5 mM KF, 1 mM DTT, 20 μM GTPγS, 600 μM UDP-glucose) and the reaction initiated by the addition of 2.5 μl of enzyme preparation. After incubation at 30°C. for 120 minutes, 10 μl of 30 mg/ml BSA is added with mixing and the reaction is terminated with 110 μl ice-cold 20% TCA. The precipitate is collected on a GF/B filter plate and washed three times with 200 μl water. Once dry, 200 μl of Microscint20 is added to each well and the plate is read on a Top-count scintillation counter.
1,3-beta-glucan synthase [2] = target: 1,3-beta-glucan synthase (Candida, UniProt O13428); experiment: as §1
Chain of 1,3-beta-glucan synthase (Candida, UniProt O13428) (O13428 whole entry): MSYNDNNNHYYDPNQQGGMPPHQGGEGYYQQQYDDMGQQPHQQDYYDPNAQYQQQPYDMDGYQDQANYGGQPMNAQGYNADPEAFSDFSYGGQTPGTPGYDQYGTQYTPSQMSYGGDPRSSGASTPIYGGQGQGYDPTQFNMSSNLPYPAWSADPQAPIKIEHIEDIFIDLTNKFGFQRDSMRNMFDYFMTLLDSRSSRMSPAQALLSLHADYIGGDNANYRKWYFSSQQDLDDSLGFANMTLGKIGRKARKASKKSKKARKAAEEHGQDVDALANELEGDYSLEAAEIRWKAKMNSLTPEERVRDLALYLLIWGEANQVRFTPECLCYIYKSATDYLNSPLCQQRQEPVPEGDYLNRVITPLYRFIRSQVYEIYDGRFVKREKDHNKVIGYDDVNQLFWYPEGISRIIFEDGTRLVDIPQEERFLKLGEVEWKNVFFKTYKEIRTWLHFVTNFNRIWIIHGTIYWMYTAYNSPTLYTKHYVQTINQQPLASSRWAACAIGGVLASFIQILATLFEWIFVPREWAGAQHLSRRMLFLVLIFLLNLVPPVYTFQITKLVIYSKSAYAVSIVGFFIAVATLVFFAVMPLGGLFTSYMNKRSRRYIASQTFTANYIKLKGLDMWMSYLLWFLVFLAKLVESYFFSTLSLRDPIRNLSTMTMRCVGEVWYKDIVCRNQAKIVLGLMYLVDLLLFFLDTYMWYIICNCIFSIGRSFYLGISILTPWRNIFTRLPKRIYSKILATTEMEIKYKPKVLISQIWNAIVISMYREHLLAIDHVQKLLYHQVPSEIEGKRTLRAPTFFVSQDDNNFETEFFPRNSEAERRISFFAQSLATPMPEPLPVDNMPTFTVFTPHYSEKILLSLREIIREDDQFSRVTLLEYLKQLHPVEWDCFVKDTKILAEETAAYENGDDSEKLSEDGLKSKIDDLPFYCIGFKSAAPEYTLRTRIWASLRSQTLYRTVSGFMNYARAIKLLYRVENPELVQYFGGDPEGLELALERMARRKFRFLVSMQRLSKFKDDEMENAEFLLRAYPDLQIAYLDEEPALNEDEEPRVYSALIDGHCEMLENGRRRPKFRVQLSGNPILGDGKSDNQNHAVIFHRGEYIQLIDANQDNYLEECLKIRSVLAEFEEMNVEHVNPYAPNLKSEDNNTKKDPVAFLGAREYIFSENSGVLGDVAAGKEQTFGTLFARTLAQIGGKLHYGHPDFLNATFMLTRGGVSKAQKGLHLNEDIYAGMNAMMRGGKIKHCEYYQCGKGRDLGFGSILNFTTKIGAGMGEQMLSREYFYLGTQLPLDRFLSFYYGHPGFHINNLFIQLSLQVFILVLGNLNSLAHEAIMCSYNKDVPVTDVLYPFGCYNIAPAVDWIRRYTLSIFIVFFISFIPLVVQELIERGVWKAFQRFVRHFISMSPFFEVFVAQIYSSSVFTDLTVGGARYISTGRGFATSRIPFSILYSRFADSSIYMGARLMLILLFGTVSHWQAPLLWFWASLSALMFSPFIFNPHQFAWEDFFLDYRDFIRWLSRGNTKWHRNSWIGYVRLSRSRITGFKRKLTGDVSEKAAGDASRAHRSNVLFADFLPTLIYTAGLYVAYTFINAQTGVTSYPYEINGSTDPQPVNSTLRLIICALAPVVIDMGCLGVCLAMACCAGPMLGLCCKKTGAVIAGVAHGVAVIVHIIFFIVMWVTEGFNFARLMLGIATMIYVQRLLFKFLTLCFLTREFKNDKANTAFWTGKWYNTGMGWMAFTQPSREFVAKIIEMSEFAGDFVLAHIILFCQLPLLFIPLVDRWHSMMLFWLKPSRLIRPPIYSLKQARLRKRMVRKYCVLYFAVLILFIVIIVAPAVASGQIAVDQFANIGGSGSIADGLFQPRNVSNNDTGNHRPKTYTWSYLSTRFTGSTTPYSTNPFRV

Chain of 1,3-beta-glucan synthase (Aspergillus, UniProt Q4WLT4) (Q4WLT4 whole entry): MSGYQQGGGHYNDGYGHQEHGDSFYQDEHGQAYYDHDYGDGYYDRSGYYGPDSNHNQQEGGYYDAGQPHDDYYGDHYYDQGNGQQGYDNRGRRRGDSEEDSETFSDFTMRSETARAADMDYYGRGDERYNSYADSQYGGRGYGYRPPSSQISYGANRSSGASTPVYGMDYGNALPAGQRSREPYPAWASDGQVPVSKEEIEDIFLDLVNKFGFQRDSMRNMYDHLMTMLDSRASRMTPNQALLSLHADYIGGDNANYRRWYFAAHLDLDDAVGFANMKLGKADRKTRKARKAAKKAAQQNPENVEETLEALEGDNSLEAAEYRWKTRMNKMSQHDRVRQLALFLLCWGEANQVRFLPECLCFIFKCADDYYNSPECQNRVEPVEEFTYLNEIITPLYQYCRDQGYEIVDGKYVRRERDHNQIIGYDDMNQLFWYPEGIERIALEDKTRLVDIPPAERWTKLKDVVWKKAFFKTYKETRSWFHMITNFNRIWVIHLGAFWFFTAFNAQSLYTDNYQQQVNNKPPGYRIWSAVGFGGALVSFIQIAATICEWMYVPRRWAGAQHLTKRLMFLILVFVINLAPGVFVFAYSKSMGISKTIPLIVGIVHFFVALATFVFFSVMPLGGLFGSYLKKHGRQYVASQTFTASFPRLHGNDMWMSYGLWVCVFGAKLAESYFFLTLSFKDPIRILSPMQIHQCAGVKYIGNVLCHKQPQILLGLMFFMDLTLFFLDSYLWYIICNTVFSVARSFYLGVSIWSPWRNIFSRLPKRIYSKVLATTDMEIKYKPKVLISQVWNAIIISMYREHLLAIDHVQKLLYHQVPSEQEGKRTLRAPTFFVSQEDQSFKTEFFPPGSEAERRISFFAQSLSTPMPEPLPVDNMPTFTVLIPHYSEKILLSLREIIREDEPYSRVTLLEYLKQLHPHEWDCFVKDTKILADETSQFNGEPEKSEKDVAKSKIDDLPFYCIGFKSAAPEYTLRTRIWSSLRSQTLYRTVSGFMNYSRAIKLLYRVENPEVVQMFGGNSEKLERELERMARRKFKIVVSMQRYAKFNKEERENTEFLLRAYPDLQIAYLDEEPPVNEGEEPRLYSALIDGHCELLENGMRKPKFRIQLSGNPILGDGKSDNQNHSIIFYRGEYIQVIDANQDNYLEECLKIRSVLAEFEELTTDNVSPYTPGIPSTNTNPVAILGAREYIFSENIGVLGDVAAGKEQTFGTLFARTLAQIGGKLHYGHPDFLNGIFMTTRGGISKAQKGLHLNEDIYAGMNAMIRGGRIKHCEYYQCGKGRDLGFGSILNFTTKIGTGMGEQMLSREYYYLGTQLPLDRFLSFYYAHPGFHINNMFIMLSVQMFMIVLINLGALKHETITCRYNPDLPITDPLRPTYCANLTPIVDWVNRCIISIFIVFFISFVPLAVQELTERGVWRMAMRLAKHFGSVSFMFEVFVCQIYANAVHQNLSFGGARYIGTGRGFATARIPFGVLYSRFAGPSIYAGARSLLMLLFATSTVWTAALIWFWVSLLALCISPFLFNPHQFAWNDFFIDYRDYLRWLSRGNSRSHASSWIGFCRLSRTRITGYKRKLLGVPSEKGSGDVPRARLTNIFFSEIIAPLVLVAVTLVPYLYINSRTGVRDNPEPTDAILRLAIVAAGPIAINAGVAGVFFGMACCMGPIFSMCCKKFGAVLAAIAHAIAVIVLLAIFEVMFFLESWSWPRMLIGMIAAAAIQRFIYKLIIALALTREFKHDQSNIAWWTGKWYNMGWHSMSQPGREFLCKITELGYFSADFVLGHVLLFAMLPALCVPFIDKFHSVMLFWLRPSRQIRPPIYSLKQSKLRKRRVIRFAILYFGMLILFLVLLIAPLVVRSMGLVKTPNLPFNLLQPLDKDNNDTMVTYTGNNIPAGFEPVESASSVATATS

`N[C@H]1CCN(C(=O)CN(CC(=O)NCc2cccc(Cl)c2)c2ccc(Oc3ccccc3)cc2)C1` was tested, and the IC50 (1,3-beta-glucan synthase [1]) was 5.6 µM and the IC50 (1,3-beta-glucan synthase [2]) was 8 µM.
